Experimental data as given in patent publication US20120178738A1, “DIBENZO [B,F] [1,4]OXAZAPINE COMPOUNDS” (ARYX THERAPEUTICS, INC., priority 2007, published 2012).

How the values were obtained:
[1] = test system: locomotor activity in rats; experiment: Spontaneous locomotor activity (open field); assay type: in vivo
Procedure: One of the common side effects of many antipsychotic drugs is sedation. It has been shown that agents that have sedative actions in man have the same effect in animals. The purpose of these studies was to evaluate the effect of test compounds on the locomotor activity in rats, which is used to assess the sedative properties of antipsychotic compounds.
The animals (male Sprague Dawley rats, about 300-450 g; Charles River) were assessed for ambulation for 30 minutes before and for 30 min after vehicle or test compounds. […] Locomotor activity is quantified by the number of photobeams crossed by the animal over several 3×10 min intervals.

human D2S receptor = molecular target: T1, human D2S receptor (Homo sapiens, UniProt P14416); experiment: Adenylyl cyclase (HitHunter cAMP XS) assay in HEK 293 cells expressing human D2S; assay type: cell-based
T1 construct: host or cells: HEK 293 cells

catalepsy in mice = experiment: Catalepsy mouse model; assay type: in vivo; details: up to 30 mg/kg, IP
Procedure: A catalepsy mouse model was used to investigate a potential side effect of antipsychotic agents.
The catalepsy methodology used herein has been adapted from Tada, M. et al. ((2004). Psychopharmacol., 176, 94-100) as well as Wang et al. ((2000). J. Neurosci., 20, 8305-8314).
The animals (Swiss Webster, female, about 20 g; Charles River) were administered compounds of the invention (1 μg/kg-30 mg/kg ip). Twenty seven minutes after test compound injection, the mice's forepaws were placed on a horizontal steel bar (diameter 0.2 cm), elevated 3-5 cm above the tabletop and the time taken for the animals to remove both paws was recorded for up to 2 min.

T1 sequence (P14416 1-414 isoform P14416-2): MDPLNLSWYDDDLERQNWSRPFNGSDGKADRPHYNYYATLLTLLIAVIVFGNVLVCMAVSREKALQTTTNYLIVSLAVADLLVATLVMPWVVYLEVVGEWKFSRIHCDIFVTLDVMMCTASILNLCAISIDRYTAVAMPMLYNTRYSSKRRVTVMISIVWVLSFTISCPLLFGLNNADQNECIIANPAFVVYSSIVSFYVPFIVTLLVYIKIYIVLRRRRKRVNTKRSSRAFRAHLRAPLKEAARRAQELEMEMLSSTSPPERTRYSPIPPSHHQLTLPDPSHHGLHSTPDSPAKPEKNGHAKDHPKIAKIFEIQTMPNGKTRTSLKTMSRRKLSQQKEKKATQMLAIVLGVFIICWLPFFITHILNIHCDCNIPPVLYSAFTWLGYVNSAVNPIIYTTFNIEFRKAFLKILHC

| SMILES | locomotor activity in rat (open field) ([1]; 10 mg/kg) | functional activity at human D2S receptor (human D2S receptor; HEK 293 cells, 27 μM forskolin (agonist) or plus 30 nM dopamine (antagonist)) | IC50 (human D2S receptor; adenylyl cyclase assay, human D2S receptor, read-out: estimated IC50) [µM] | catalepsy (catalepsy in mice) | locomotor activity in rat (open field) ([1]; 0.03-10 mg/kg) |
| --- | --- | --- | --- | --- | --- |
| O=C(O)C[C@H]1CN(C2=Nc3cc(Cl)ccc3Oc3ccccc32)CCN1 [Compound Q, (S,E)-2-(4-(8-chlorodibenzo[b,f][1,4]oxazepin-11-yl)piperazin-2-yl)acetic acid] | did not reduce | – | – | – | – |
| CCOC(=O)C[C@H]1CN(C2=Nc3cc(Cl)ccc3Oc3ccccc32)CCN1 [Compound K, (S,E)-ethyl 2-(4-(8-chlorodibenzo[b,f][1,4]oxazepin-11-yl)piperazin-2-yl)acetate] | – | partial D2 receptor agonist and a D2 receptor antagonist | 13 | did not cause catalepsy | did not reduce |
